The results in this text go back to PubChem BioAssay (NCI).

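Five concentrations, 48 hours, 96-well plates. GI50 = concentration required for 50% inhibition of growth. TGI: total growth inhibition.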

Common to all, as to experiment: growth of human tumour cells (NCI), 48 h
The subject of assay [1] is UO-31 renal.
Assay [2] concerns COLO 205 colon.
Assay [3] has as its system CCRF-CEM leukemia.
Assay [4] relates to NCI-H226 lung.
The subject of assay [5] is TK-10 renal.
The subject of assay [6] is HL-60(TB) leukemia.
For assay [7], the system named is SF-539 CNS.
The subject of assay [8] is SNB-19 CNS.
Assay [9] relates to NCI-H460 lung.
The test system of assay [10] is UACC-257 melanoma.

For `Cc1c(Cl)cccc1NC(=O)c1sc2nc3c(cc2c1N)C(=O)CCC3`, the GI50 was 0.0682 µM in [1]; 0.05 µM in assay [2]; 0.108 µM in assay [3]; 0.102 µM in assay [4]; 37.6 µM in assay [5]; 0.081 µM in assay [6]. Moreover, the GI50 in assay [7] was 0.0353 µM; in [8] it was 0.0698 µM; in assay [9], 0.0407 µM. The TGI in assay [1] was above 91.5 µM; in [2], 0.344 µM; in [3] it was above 100 µM; in assay [4], above 37.1 µM; in assay [5] it was above 100 µM; in [6], 0.769 µM. Also, the results for the TGI in assay [7], in assay [8] and in assay [9] were 0.19 µM, above 100 µM and above 100 µM, respectively.
For the compound `O=C1c2ccn(CCCNC(CO)(CO)CO)c2C(=O)c2c1c(O)c1ccccc1c2O`, the GI50 in [1] was 13.4 µM; in assay [2] it was 13.2 µM; in assay [3], 10 µM; in [4] it was 60.7 µM; in assay [5], 1.32 µM; in assay [7], 11.4 µM. Further, the values for the GI50 in assay [8], in assay [10] and in assay [9] were 36.3 µM, 43.9 µM and 10.2 µM, respectively. The TGI in assay [1] was 30.3 µM; in assay [2], 29.4 µM; in assay [3], 44 µM; in [4], above 100 µM; in [5], 22.6 µM; in assay [7], 25.6 µM. The TGI is above 100 µM in assay [8], above 78.1 µM in assay [10] and 29.3 µM in [9].
For `O=C1NC2(CCCCC2)C2CCCCC=C12` (stereo not drawn), the TGI in assay [1], in [2], in [3], in assay [5], in assay [6] and in [7] was above 100 µM each time. Also, the TGI in assay [8], in assay [10] and in [9] was above 100 µM each time.
Turning to `CC(=O)CCc1ccc(Oc2c3c(nc4ccccc24)OCC3)cc1`, the GI50 in assay [1] was 54.4 µM; in assay [2], above 100 µM; in [3], above 100 µM; in assay [4], 12.3 µM; in assay [7], 85.7 µM; in assay [8] it was above 100 µM. In addition, the results for the GI50 in [10] and in [9] were 3.12 µM and 29.4 µM, respectively. Besides, the TGI was above 100 µM in assay [1]; above 100 µM in assay [2]; above 100 µM in assay [3]; 78.8 µM in [4]; above 100 µM in [7]; above 100 µM in [8]. For the same compound, the values for the TGI in [10] and in assay [9] were 30.2 µM and above 100 µM, respectively.
Take `C[C@]12CC(C=O)C(=O)C(O)=C1CC[C@@H]1C2CC[C@@]2(C)C1CC[C@]2(C)O` (stereo partly drawn): the TGI in assay [1] stood at 51.1 µM; in assay [2] it was 38.3 µM; in [4], 39.5 µM; in assay [5], 99.5 µM; in assay [6] it was 41.5 µM; in [7], 35.1 µM. The TGI in [8] is 63.5 µM; in [10], 75.5 µM; in [9], 87 µM.
With `O=[N+]([O-])c1cccc(S(=O)(=O)N/N=C/c2cc(I)cc([N+](=O)[O-])c2O)c1`, the TGI is 67.5 µM in [1]; 31.7 µM in assay [2]; 47.9 µM in assay [3]; 95.2 µM in assay [5]; 47 µM in assay [6]; 48.5 µM in [7]. Besides, the TGI in [8] was 65.5 µM; in [10], 57 µM; in [9] it was above 100 µM.
On to `Cc1cc(Cl)nc(N(CCCNc2ccnc3cc(Cl)ccc23)Cc2cccs2)n1`, for which the GI50 in [1] was 0.456 µM; in assay [2] it was 1.39 µM; in [3], 2.56 µM; in [4], 2.56 µM; in assay [5], 2.07 µM; in assay [7], 1.81 µM. Also, the results for the GI50 in assay [8], in assay [10] and in assay [9] were 2.35 µM, 2.19 µM and 1.56 µM, respectively. Also, the TGI in assay [1] is 3.71 µM; in assay [2], 3.58 µM; in assay [3], above 100 µM; in [4] it was 15.5 µM; in assay [5], 12.1 µM; in assay [7], 5.85 µM. Moreover, the TGI was 13.5 µM in [8], 5.49 µM in assay [10] and 11 µM in [9].
Consider `COc1ccc2c(CCCc3ccc(Cl)cc3Cl)c3[n+](cc2c1OC)CCc1cc2c(cc1-3)OCO2`, for which the figures for the GI50 in assay [1], in [6] and in assay [9] were 1.58 µM, 0.23 µM and 0.343 µM, respectively. Further, the results for the TGI in [1], in [6] and in [9] were 3.08 µM, 0.838 µM and 1.32 µM, respectively.
For `Cc1cc(-c2nc3n(c2/C=N/N=C(N)N)CCS3)c(C)s1`, the GI50 was 17.8 µM in [1]; 12.7 µM in assay [3]; 18.7 µM in [4]; 33.6 µM in assay [5]; 36.9 µM in assay [6]; 16.8 µM in assay [7]. Moreover, the GI50 in assay [8] was 17.2 µM; in assay [9], 19.6 µM. The TGI is 36.8 µM in assay [1]; 37.1 µM in assay [3]; 37.9 µM in assay [4]; above 100 µM in assay [5]; above 100 µM in assay [6]; 31.3 µM in [7]. Further, the TGI came to 35.3 µM in assay [8] and 35.7 µM in assay [9].
In the case of `COC(=O)c1ccc(NC(=O)c2ccc(NC3=C(Cl)C(=O)N(Cc4ccccc4)C3=O)cc2)cc1`, the GI50 is 17.9 µM in assay [1]; 37 µM in assay [2]; 22 µM in assay [4]; 12.8 µM in assay [6]; 20.7 µM in assay [7]; 16.5 µM in [8]. The GI50 in assay [10] and in [9] was 27.3 µM in each case. In addition, the TGI was 31.7 µM in assay [1]; above 100 µM in [2]; 40.6 µM in assay [4]; 25.4 µM in assay [6]; 39.4 µM in [7]; 30.4 µM in [8]. Further, the TGI was 76.5 µM in [10] and above 100 µM in assay [9].
Turning to `Cc1ccc(-c2c3c(nn2-c2ccc(S(=O)(=O)NC(=O)NC4CCCCC4)cc2)-c2ccccc2C3)cc1`, the GI50 is 1.33 µM in assay [1]; 12.1 µM in [2]; 20.4 µM in assay [4]; 1.7 µM in assay [5]; 5.17 µM in assay [6]; 9.48 µM in assay [7]. In addition, the GI50 in [8] is 20.1 µM; in [10] it was 23.7 µM; in assay [9], 8.75 µM. For the same compound, the TGI in [1] is 2.64 µM; in assay [2] it was 30.4 µM; in assay [4] it was 47.3 µM; in [5], 9.85 µM; in [6], 21.4 µM; in [7], 21.9 µM. Further, the TGI in assay [8] turned out to be 49.7 µM; in assay [10], 49.6 µM; in assay [9], 26.3 µM.
For `CN(C)N=Nc1cccc(C(N)=O)c1`, the TGI in [1], in [2], in assay [3], in assay [4], in assay [5] and in assay [6] was above 100 µM each time. Moreover, the TGI in assay [7], in [8] and in assay [9] was above 100 µM throughout.
Take `C=C(C)C1CCC2=CC(CC3(C)OC3C3=CC(C(=O)OC)=C(C1)O3)OC2=O` (stereo not drawn): the TGI in assay [1], in assay [3], in assay [4], in assay [5], in assay [7] and in [8] was above 100 µM each time. Moreover, the TGI in assay [10] and in assay [9] was above 100 µM in each case.
Take `Cn1c2c(c3ccccc3c1=O)C(=O)c1ccccc1-2`: the TGI in assay [1], in assay [2], in [3], in assay [4], in assay [5] and in [6] was above 100 µM in each case. Besides, the results for the TGI in assay [7], in [8] and in [10] were 59.1 µM, above 100 µM and above 100 µM, respectively.
With `CCn1cc(C(=O)N/N=C/c2cccs2)c(=O)c2cc(F)c(N3CCNC(C)C3)c(F)c21` (stereo not drawn), the GI50 was 1.52 µM in assay [1]; 1.78 µM in assay [2]; 1.72 µM in assay [5]; 1.62 µM in assay [7]; 1.61 µM in assay [8]; 1.8 µM in assay [10]. Further, the GI50 in assay [9] was 1.75 µM. Moreover, the TGI came out at 2.96 µM in assay [1]; 3.52 µM in [2]; 3.25 µM in [5]; 3.07 µM in assay [7]; 2.96 µM in [8]; 3.43 µM in [10]. In addition, in assay [9], the TGI was 3.24 µM.
Turning to `CC(=O)c1ccc2c3c1[C@H]1O[C@H]1c1cccc(c1-3)[C@@H]1O[C@H]21`, the TGI in assay [1] was 3.41 µM; in [2], 3.59 µM; in assay [3], 4.2 µM; in assay [4], above 88.3 µM; in assay [5], above 51.2 µM; in assay [6] it was 5.75 µM. The TGI in assay [8] was found to be 13.1 µM; in assay [10] it was 8.1 µM.
As to `O=C1CC(Cc2n[nH]c3c2CCCC3)CC(=O)N1`, the TGI in [2], in assay [3], in [4], in assay [5], in assay [6] and in [7] was above 100 µM each time. For the same compound, the TGI in [10] is above 100 µM.
Turning to `COc1cc([C@@H]2OC(=O)C3C2C(=O)O[C@H]3c2ccc(O)c(OC)c2)ccc1O` (stereo partly drawn), the TGI in assay [1], in [2], in assay [3], in assay [4], in [5] and in assay [7] was above 100 µM each time. The TGI in [8], in assay [10] and in assay [9] was above 100 µM in each case.
As to `Cc1nn(Cc2ccccc2)cc1C(=O)Nc1sc2c(c1C(N)=O)CCC(=O)C2`, the GI50 in [1] is 1.39 µM; in assay [2], 1.67 µM; in [3], 0.789 µM; in assay [4], 2.29 µM; in [5] it was 3.33 µM; in [7], 1.36 µM. Besides, the GI50 in assay [8] was 3.33 µM; in assay [10], 2.16 µM; in assay [9], 3.52 µM. Also, the TGI in [1] worked out at 2.88 µM; in assay [2] it was 3.76 µM; in assay [3] it was 17.1 µM; in [4] it was 5.7 µM; in assay [5], 26.4 µM; in [7] it was 3.02 µM. Besides, the TGI is above 100 µM in assay [8], 6.24 µM in assay [10] and 21.2 µM in [9].
Take `C=CCC(N[C@H](CO)c1ccccc1)c1ccccn1` (stereo partly drawn): the GI50 was above 100 µM in [1]; above 100 µM in assay [2]; above 100 µM in assay [3]; above 100 µM in assay [4]; above 100 µM in assay [5]; 38.6 µM in [6]. Also, the GI50 in [7] and in assay [10] was above 100 µM each time. In addition, the TGI in assay [1], in assay [2], in [3], in assay [4], in assay [5] and in assay [6] was above 100 µM throughout. Moreover, the TGI in [7] and in [10] was above 100 µM each time.
For `COc1cc2c3c(n([C@@H]4CCOC4)c(=O)c2cc1OC)-c1cc2c(cc1C3=O)OCO2`, the GI50 in assay [1] was below 0.01 µM; in [2], 0.0193 µM; in assay [3] it was below 0.01 µM; in [5], above 100 µM; in [6], below 0.01 µM; in [7] it was below 0.01 µM. Also, the GI50 in assay [8] was below 0.01 µM. In addition, the TGI in [1] was above 100 µM; in [2], above 100 µM; in assay [3], above 100 µM; in assay [5] it was above 100 µM; in [6] it was above 100 µM; in assay [7], 0.0208 µM. The compound further showed a TGI in [8] above 100 µM.
Consider `COc1cccc2c(SCC(=O)Nc3ccccc3-c3ccccc3NC(=O)CSc3c4ccccc4nc4c(OC)cccc34)c3ccccc3nc12`, for which the TGI in assay [2], in assay [3], in [4], in assay [5], in assay [6] and in [7] was above 100 µM each time. The TGI in assay [8] and in [9] was above 100 µM throughout.
